Assay: speed of dissolution in water (10 mg crystal in 50 mL ion exchanged water, 60 rpm, concentration by liquid chromatography)
Format: physicochemical
Settings: for concentration (elution %): 10 mg in 50 mL ion exchanged water, 60 revolutions per minute
Procedure: The anhydrous form of a B type crystal of 7-[2-(2-aminothiazol-4-yl)-2-hydroxyiminoacetamide]-3-vinyl-3-cephem-4-carboxylic acid (syn isomer) obtained in Example 2, and the A type crystal of a compound (I) obtained by deposition of a crystal from a sodium bicarbonate aqueous solution having a pH value of 3.6 and a temperature of 22° C. in Example 1 were used, and the speed of dissolution thereof in water was measured.
Namely, each 10 mg of the above-mentioned A type crystal or B type crystal was put into 50 mL of ion exchanged water and dissolved at a revolution per minute of 60, and the concentrations of each crystal in the solution with the lapse of time were measured by liquid chromatography.

Compound	concentration (elution %) (lapse time 110 min)	concentration (elution %) (lapse time 340 min)	concentration (elution %) (lapse time 700 min)	solubility in water compared with conventional A type crystal (conclusion from Table 5)
C=CC1=C(C(=O)O)N2C(=O)C(NC(=O)/C(=N\O)c3csc(N)n3)C2SC1 (stereo not drawn) [A type crystal, 7-[2-(2-aminothiazol-4-yl)-2-hydroxyiminoacetamide]-3-vinyl-3-cephem-4-carboxylic acid (syn isomer), reference compound]	32.7 elution %	39.7 elution %	63.7 elution %	
C=CC1=C(C(=O)O)N2C(=O)C(NC(=O)/C(=N\O)c3csc(N)n3)C2SC1 (stereo not drawn) [B type crystal, 7-[2-(2-aminothiazol-4-yl)-2-hydroxyiminoacetamide]-3-vinyl-3-cephem-4-carboxylic acid (syn isomer)]	72.8 elution %	78.4 elution %	91.1 elution %	more excellent solubility in water as compared with a conventional A type crystal

— patent publication US20070270586A1, “NOVEL CRYSTAL OF 7-[2-[(2-AMINOTHIAZOL-4-YL)-2-HYDROXYIMINOACETAMIDE-3-VINYL-3-CEPHEM-4-CARBOXYLIC ACID (SYN ISOMER) AND METHOD FOR PREPARATION THEREOF” (priority 2003, published 2007)
